Data: US20230183292A1, “IMMUNOMODULATORS” (priority 2020, published 2023)
Starred links: 1 amine or outer side, 2 acyl side, 3 side chain; linkers in the order of their positions; H or OH if unused. Positions of bridges follow the written chain, without caps; N, C: chain ends. Non-standard residues stand in square brackets, D forms with d. Residues, ends and D or L forms follow the SMILES beside them. Groups on a side chain read outwards from the residue. *: point of attachment. Cholesteryloxycarbonyl = CC(C)CCC[C@@H](C)[C@H]1CC[C@H]2[C@@H]3CC=C4C[C@@H](OC(=O)*)CC[C@]4(C)[C@H]3CC[C@]12C; X17 = C[C@H](CCC(=O)O)[C@H]1CC[C@H]2[C@@H]3CC[C@@H]4CC(NC[C@H](N[*:1])C(=O)[*:2])CC[C@]4(C)[C@H]3CC[C@]12C; Cholyl = C[C@H](CCC(=O)*)[C@H]1CC[C@H]2[C@@H]3[C@H](O)C[C@@H]4C[C@H](O)CC[C@]4(C)[C@H]3C[C@H](O)[C@]12C; Deoxycholoyl = C[C@H](CCC(=O)*)[C@H]1CC[C@H]2[C@@H]3CC[C@@H]4C[C@H](O)CC[C@]4(C)[C@H]3C[C@H](O)[C@]12C; X36 = C[C@H](CCC(=O)*)[C@H]1CC[C@H]2[C@@H]3CC[C@@H]4C[C@H](O)CC[C@]4(C)[C@H]3CC(O)[C@]12C; X35 = O=C(Cn1cc(C[C@H](N[*:1])C(=O)[*:2])c2ccccc21)NCC(F)(F)F; X11 = O=C(Cn1cc(C[C@H](N[*:1])C(=O)[*:2])c2ccccc21)NCCCCCO; Trp(1-CH2CO2Me) = COC(=O)Cn1cc(C[C@H](N)C(=O)O)c2ccccc21; Trp(1-CH2COOH) = N[C@@H](Cc1cn(CC(=O)O)c2ccccc12)C(=O)O; X37 = O=C(Cn1cc(C[C@H](N[*:1])C(=O)[*:2])c2ccccc21)OCCO; X1 = NCCNC(=O)Cn1cc(C[C@H](N[*:1])C(=O)[*:2])c2ccccc21; Pro(4R-Me) = C[C@H]1CN[C@H](C(=O)O)C1; Hyp = O=C(O)[C@@H]1C[C@@H](O)CN1; NMeNle = CCCC[C@H](NC)C(=O)O; NMeA = CN[C@@H](C)C(=O)O; Dab = NCC[C@H](N)C(=O)O; Dap = NC[C@H](N)C(=O)O

Molecular target: T1, PD-1/PD-L1 (Homo sapiens, UniProt Q9NZQ7)
T1 construct: TVMV protease site (C); made in house; host or cells: HEK293T cells
T1 sequence (Q9NZQ7 18-239): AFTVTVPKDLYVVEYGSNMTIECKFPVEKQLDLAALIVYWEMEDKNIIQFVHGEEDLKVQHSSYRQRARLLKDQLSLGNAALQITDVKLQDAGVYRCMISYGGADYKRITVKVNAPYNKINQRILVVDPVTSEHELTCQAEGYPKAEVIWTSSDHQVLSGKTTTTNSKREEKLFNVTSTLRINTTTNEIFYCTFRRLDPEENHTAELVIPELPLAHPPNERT
Experiment: PD-1/PD-L1 Homogenous Time-Resolved Fluorescence (HTRF) binding assay
Conditions: HTRF IC50, PD-L1-His 10 nM, PD-1-Ig 20 nM
Source text: The ability of the compounds of formula (I) to bind to PD-L1 was investigated using a PD-1/PD-L1 Homogenous Time-Resolved Fluorescence (HTRF) binding assay.
The interaction of PD-1 and PD-L1 can be assessed using soluble, purified preparations of the extracellular domains of the two proteins. The PD-1 and PD-L1 protein extracellular domains were expressed as fusion proteins with detection tags, for PD-1, the tag was the Fc portion of Immunoglobulin (PD-1-Ig) and for PD-L1 it was the 6 histidine motif (PD-L1-His). All binding studies were performed in an HTRF assay buffer consisting of dPBS supplemented with 0.1% […] bovine serum albumin and 0.05% (v/v) Tween-20. For the h/PD-L1-His binding assay, inhibitors were pre-incubated with PD-L1-His (10 nM final) for 15 m in 4 μl of assay buffer, followed by addition of PD-1-Ig (20 nM final) in 1 μl of assay buffer and further incubation for 15 m. HTRF detection was achieved using europium crypate-labeled anti-Ig (1 nM final) and allophycocyanin (APC) labeled anti-His (20 nM final). Antibodies were diluted in HTRF detection buffer and 5 μl was dispensed on top of the binding reaction. The reaction mixture was allowed to equilibrate for 30 minutes and the resulting signal (665 nm/620 nm ratio) was obtained using an EnVision fluorometer. Additional binding assays were established between the human proteins PD-1-Ig/PD-L2-His (20 & 5 nM, respectively) and CD80-His/PD-L1-Ig (100 & 10 nM, respectively).
Recombinant Proteins: Human PD-1 (25-167) with a C-terminal human Fc domain of immunoglobulin G (Ig) epitope tag [hPD-1 (25-167)-3S-IG] and human PD-L1 (18-239) with a C-terminal His epitope tag [hPD-L1(18-239)-TVMV-His] were expressed in HEK293T cells and purified sequentially by ProteinA affinity chromatography and size exclusion chromatography. Human PD-L2-His and CD80-His was obtained through commercial sources.
Table 1 lists the IC50 values for representative examples of this disclosure measured in the PD-1/PD-L1 Homogenous Time-Resolved Fluorescence (HTRF) binding assay.

SMILES | IC50 [µM]
CCCC[C@H]1C(=O)N(C)[C@@H](CCCC)C(=O)N[C@@H](CC(C)C)C(=O)N[C@H](C(=O)NCC(N)=O)CSCC(=O)N[C@@H](Cc2ccc(O)cc2)C(=O)N(C)[C@@H](C)C(=O)N[C@@H](CC(N)=O)C(=O)N2CCC[C@H]2C(=O)N[C@@H](CNC(=O)O[C@H]2CC[C@@]3(C)C(=CC[C@H]4[C@@H]5CC[C@H]([C@H](C)CCCC(C)C)[C@@]5(C)CC[C@@H]43)C2)C(=O)N[C@@H](CC(C)C)C(=O)N2C[C@H](O)C[C@H]2C(=O)N[C@@H](Cc2c[nH]c3ccccc23)C(=O)N[C@@H](CCN)C(=O)N[C@@H](Cc2cn(CC(=O)O)c3ccccc23)C(=O)N1C [Example 1012] ({CH2CO}-Y[NMeA]NP[Dap](Cholesteryloxycarbonyl)L[Hyp]W[Dab][Trp(1-CH2COOH)][NMeNle][NMeNle]LCG-NH2; thioether N-14) | 0.13

Same assay, conditions: PD-L1-His 10 nM, PD-1-Ig 20 nM; read-out: HTRF IC50

SMILES | IC50 [µM]
CCCC[C@H]1C(=O)N(C)[C@@H](CCCC)C(=O)N[C@@H](CC(C)C)C(=O)N[C@H](C(=O)NCC(N)=O)CSCC(=O)N[C@@H](Cc2ccc(O)cc2)C(=O)N(C)[C@@H](C)C(=O)N[C@@H](CC(N)=O)C(=O)N2CCC[C@H]2C(=O)N[C@@H](CNC(=O)CNC(=O)CC[C@@H](C)[C@H]2CC[C@H]3[C@@H]4[C@H](O)C[C@@H]5C[C@H](O)CC[C@]5(C)[C@H]4C[C@H](O)[C@]23C)C(=O)N[C@@H](CC(C)C)C(=O)N2C[C@H](C)C[C@H]2C(=O)N[C@@H](Cc2c[nH]c3ccccc23)C(=O)N[C@@H](CCNC(=O)CNC(=O)CC[C@@H](C)[C@H]2CC[C@H]3[C@@H]4[C@H](O)C[C@@H]5C[C@H](O)CC[C@]5(C)[C@H]4C[C@H](O)[C@]23C)C(=O)N[C@@H](Cc2cn(CC(=O)OCCO)c3ccccc23)C(=O)N1C [Example 2035] ({CH2CO}-Y[NMeA]NP[Dap]([Gly-Cholyl])L[Pro(4R-Me)]W[Dab]([Gly-Cholyl])[X37][NMeNle][NMeNle]LCG-NH2; thioether N-14) | 0.83
CCCC[C@H]1C(=O)N(C)[C@@H](CCCC)C(=O)N[C@@H](CC(C)C)C(=O)N[C@H](C(=O)NCC(N)=O)CSCC(=O)N[C@@H](Cc2ccc(O)cc2)C(=O)N(C)[C@@H](C)C(=O)N[C@@H](CC(N)=O)C(=O)N2CCC[C@H]2C(=O)N[C@@H](CNC(=O)CC[C@@H](C)[C@H]2CC[C@H]3[C@@H]4CC[C@@H]5C[C@H](O)CC[C@]5(C)[C@H]4C[C@H](O)[C@]23C)C(=O)N[C@@H](CC(C)C)C(=O)N2C[C@H](O)C[C@H]2C(=O)N[C@@H](Cc2c[nH]c3ccccc23)C(=O)N[C@@H](CCNC(=O)CC[C@@H](C)[C@H]2CC[C@H]3[C@@H]4CC[C@@H]5C[C@H](O)CC[C@]5(C)[C@H]4CC(O)[C@]23C)C(=O)N[C@@H](Cc2cn(CC(=O)OC)c3ccccc23)C(=O)N1C (stereo partly drawn) [Example 1003] ({CH2CO}-Y[NMeA]NP[Dap](Deoxycholoyl)L[Hyp]W[Dab](X36)[Trp(1-CH2CO2Me)][NMeNle][NMeNle]LCG-NH2; thioether N-14) | > 10
CCCCOC(=O)Cn1cc(C[C@@H]2NC(=O)[C@H](CCNC(=O)CC[C@@H](C)[C@H]3CC[C@H]4[C@@H]5C(=O)C[C@@H]6CC(=O)CC[C@]6(C)[C@H]5CC(=O)[C@]34C)NC(=O)[C@H](Cc3c[nH]c4ccccc34)NC(=O)[C@@H]3C[C@@H](O)CN3C(=O)[C@H](CC(C)C)NC(=O)[C@H](CNC(=O)CC[C@@H](C)[C@H]3CC[C@H]4[C@@H]5C(=O)C[C@@H]6CC(=O)CC[C@]6(C)[C@H]5CC(=O)[C@]34C)NC[C@@H]3CCCN3C(=O)[C@H](CC(N)=O)NC(=O)[C@H](C)N(C)C(=O)[C@H](Cc3ccc(O)cc3)NC(=O)CSC[C@@H](C(=O)NCC(N)=O)NC(=O)[C@H](CC(C)C)NC(=O)[C@H](CCCC)N(C)C(=O)[C@H](CCCC)N(C)C2=O)c2ccccc21 [Example 2013] | 0.041
CCCC[C@H]1C(=O)N(C)[C@@H](CCCC)C(=O)N[C@@H](CC(C)C)C(=O)N[C@H](C(=O)NCC(N)=O)CSCC(=O)N[C@@H](Cc2ccc(O)cc2)C(=O)N(C)[C@@H](C)C(=O)N[C@@H](CC(N)=O)C(=O)N2CCC[C@H]2C(=O)N[C@@H](CNC(=O)CNC(=O)CC[C@@H](C)[C@H]2CC[C@H]3[C@@H]4[C@H](O)C[C@@H]5C[C@H](O)CC[C@]5(C)[C@H]4C[C@H](O)[C@]23C)C(=O)N[C@@H](CC(C)C)C(=O)N2C[C@H](C)C[C@H]2C(=O)N[C@@H](Cc2c[nH]c3ccccc23)C(=O)N[C@@H](CCNC(=O)CNC(=O)CC[C@@H](C)[C@H]2CC[C@H]3[C@@H]4[C@H](O)C[C@@H]5C[C@H](O)CC[C@]5(C)[C@H]4C[C@H](O)[C@]23C)C(=O)N[C@@H](Cc2cn(CC(=O)NCCCCCO)c3ccccc23)C(=O)N1C [Example 2029] ({CH2CO}-Y[NMeA]NP[Dap]([Gly-Cholyl])L[Pro(4R-Me)]W[Dab]([Gly-Cholyl])[X11][NMeNle][NMeNle]LCG-NH2; thioether N-14) | 0.67
CCCC[C@H]1C(=O)N(C)[C@@H](CCCC)C(=O)N[C@@H](CC(C)C)C(=O)N[C@H](C(=O)NCC(N)=O)CSCC(=O)N[C@@H](Cc2ccc(O)cc2)C(=O)N(C)[C@@H](C)C(=O)N[C@@H](CC(N)=O)C(=O)N2CCC[C@H]2C(=O)N[C@@H](CNC2CC[C@@]3(C)[C@H](CC[C@@H]4[C@@H]3CC[C@]3(C)[C@@H]([C@H](C)CCC(=O)O)CC[C@@H]43)C2)C(=O)N[C@@H](CC(C)C)C(=O)N2C[C@H](O)C[C@H]2C(=O)N[C@@H](Cc2c[nH]c3ccccc23)C(=O)N[C@@H](CCN)C(=O)N[C@@H](Cc2cn(CC(=O)O)c3ccccc23)C(=O)N1C (stereo partly drawn) [Example 3007] ({CH2CO}-Y[NMeA]NP[X17]L[Hyp]W[Dab][Trp(1-CH2COOH)][NMeNle][NMeNle]LCG-NH2; thioether N-14) | 0.012
CCCC[C@H]1C(=O)N(C)[C@@H](CCCC)C(=O)N[C@@H](CC(C)C)C(=O)N[C@H](C(=O)NCC(N)=O)CSCC(=O)N[C@@H](Cc2ccc(O)cc2)C(=O)N(C)[C@@H](C)C(=O)N[C@@H](CC(N)=O)C(=O)N2CCC[C@H]2C(=O)N[C@@H](CNC(=O)CNC(=O)CC[C@@H](C)[C@H]2CC[C@H]3[C@@H]4[C@H](O)C[C@@H]5C[C@H](O)CC[C@]5(C)[C@H]4C[C@H](O)[C@]23C)C(=O)N[C@@H](CC(C)C)C(=O)N2C[C@H](C)C[C@H]2C(=O)N[C@@H](Cc2c[nH]c3ccccc23)C(=O)N[C@@H](CCNC(=O)CNC(=O)CC[C@@H](C)[C@H]2CC[C@H]3[C@@H]4[C@H](O)C[C@@H]5C[C@H](O)CC[C@]5(C)[C@H]4C[C@H](O)[C@]23C)C(=O)N[C@@H](Cc2cn(CC(=O)NCC(F)(F)F)c3ccccc23)C(=O)N1C [Example 2030] ({CH2CO}-Y[NMeA]NP[Dap]([Gly-Cholyl])L[Pro(4R-Me)]W[Dab]([Gly-Cholyl])[X35][NMeNle][NMeNle]LCG-NH2; thioether N-14) | 5.6
CCCC[C@H]1C(=O)N(C)[C@@H](CCCC)C(=O)N[C@@H](CC(C)C)C(=O)N[C@H](C(=O)NCC(N)=O)CSCC(=O)N[C@@H](Cc2ccc(O)cc2)C(=O)N(C)[C@@H](C)C(=O)N[C@@H](CC(N)=O)C(=O)N2CCC[C@H]2CN[C@@H](CNC(=O)CC[C@@H](C)[C@H]2CC[C@H]3[C@@H]4[C@H](O)C[C@@H]5C[C@H](O)CC[C@]5(C)[C@H]4C[C@H](O)[C@]23C)C(=O)N[C@@H](CC(C)C)C(=O)N2C[C@H](O)C[C@H]2C(=O)N[C@@H](Cc2c[nH]c3ccccc23)C(=O)N[C@@H](CCNC(=O)CC[C@@H](C)[C@H]2CC[C@H]3[C@@H]4[C@H](O)C[C@@H]5C[C@H](O)CC[C@]5(C)[C@H]4C[C@H](O)[C@]23C)C(=O)N[C@@H](Cc2cn(CC(=O)OCCOCCO)c3ccccc23)C(=O)N1C [Example 2006] | 0.2
CCCC[C@H]1C(=O)N(C)[C@@H](CCCC)C(=O)N[C@@H](CC(C)C)C(=O)N[C@H](C(=O)NCC(N)=O)CSCC(=O)N[C@@H](Cc2ccc(O)cc2)C(=O)N(C)[C@@H](C)C(=O)N[C@@H](CC(N)=O)C(=O)N2CCC[C@H]2C(=O)N[C@@H](CNC(=O)CNC(=O)CC[C@@H](C)[C@H]2CC[C@H]3[C@@H]4[C@H](O)C[C@@H]5C[C@H](O)CC[C@]5(C)[C@H]4C[C@H](O)[C@]23C)C(=O)N[C@@H](CC(C)C)C(=O)N2C[C@H](C)C[C@H]2C(=O)N[C@@H](Cc2c[nH]c3ccccc23)C(=O)N[C@@H](CCNC(=O)CNC(=O)CC[C@@H](C)[C@H]2CC[C@H]3[C@@H]4[C@H](O)C[C@@H]5C[C@H](O)CC[C@]5(C)[C@H]4C[C@H](O)[C@]23C)C(=O)N[C@@H](Cc2cn(CC(=O)NCCN)c3ccccc23)C(=O)N1C [Example 2026] ({CH2CO}-Y[NMeA]NP[Dap]([Gly-Cholyl])L[Pro(4R-Me)]W[Dab]([Gly-Cholyl])[X1][NMeNle][NMeNle]LCG-NH2; thioether N-14) | 0.4
